Data reported in US20180319753A1, “MICROBIOCIDAL OXADIAZOLE DERIVATIVES” (SYNGENTA PARTICIPATIONS AG, priority 2015, published 2018).

How the values were obtained:
[1] = system: Puccinia recondita f. Sp. Tritici; test: Puccinia recondita f. sp. tritici / wheat / leaf disc preventative (brown rust); format: in vivo; conditions: foliar, 200 ppm in the applied formulation, wheat leaf segments cv. Kanzler, inoculated 1 day after application, assessed 7 to 9 days after application, read-out: disease control compared to untreated control leaf disks
Protocol: Leaf disks or leaf segments of various plant species are cut from plants grown in a greenhouse. The cut leaf disks or segments are placed in multiwell plates (24-well format) onto water agar. The leaf disks are sprayed with a test solution before (preventative) or after (curative) inoculation. Compounds to be tested are prepared as DMSO solutions (max. 10 mg/ml) which are diluted to the appropriate concentration with 0.025% Tween20 just before spraying. The inoculated leaf disks or segments are incubated under defined conditions (temperature, relative humidity, light, etc.) according to the respective test system. A single evaluation of disease level is carried out 3 to 14 days after inoculation, depending on the pathosystem. Percent disease control relative to the untreated check leaf disks or segments is then calculated. Wheat leaf segments cv. Kanzler were placed on agar in multiwell plates (24-well format) and sprayed with the formulated test compound diluted in water. The leaf disks were inoculated with a spore suspension of the fungus 1 day after application. The inoculated leaf segments were incubated at 19° C. and 75% relative humidity (rh) under a light regime of 12 hours light/12 hours darkness in a climate cabinet and the activity of a compound was assessed as percent disease control compared to untreated when an appropriate level of disease damage appears in untreated check leaf segments (7 to 9 days after application). The following compounds at 200 ppm in the applied formulation give at least 80% disease control in this test when compared to untreated control leaf disks under the same conditions, which show extensive disease development.

[2] = system: Puccinia recondita f. Sp. Tritici; test: Puccinia recondita f. sp. tritici / wheat / leaf disc curative (brown rust); format: in vivo; conditions: foliar, 200 ppm in the applied formulation, wheat leaf segments cv. Kanzler, applied 1 day after inoculation, assessed 6 to 8 days after application, read-out: disease control compared to untreated control leaf disks
Protocol: Leaf disks or leaf segments of various plant species are cut from plants grown in a greenhouse. The cut leaf disks or segments are placed in multiwell plates (24-well format) onto water agar. The leaf disks are sprayed with a test solution before (preventative) or after (curative) inoculation. Compounds to be tested are prepared as DMSO solutions (max. 10 mg/ml) which are diluted to the appropriate concentration with 0.025% Tween20 just before spraying. The inoculated leaf disks or segments are incubated under defined conditions (temperature, relative humidity, light, etc.) according to the respective test system. A single evaluation of disease level is carried out 3 to 14 days after inoculation, depending on the pathosystem. Percent disease control relative to the untreated check leaf disks or segments is then calculated.
Wheat leaf segments cv. Kanzler are placed on agar in multiwell plates (24-well format). The leaf segments are then inoculated with a spore suspension of the fungus. Plates were stored in darkness at 19° C. and 75% relative humidity. The formulated test compound diluted in water was applied 1 day after inoculation. The leaf segments were incubated at 19° C. and 75% relative humidity under a light regime of 12 hours light/12 hours darkness in a climate cabinet and the activity of a compound was assessed as percent disease control compared to untreated when an appropriate level of disease damage appears in untreated check leaf segments (6 to 8 days after application).
The following compounds at 200 ppm in the applied formulation give at least 80% disease control in this test when compared to untreated control leaf disks under the same conditions, which show extensive disease development.

[3] = system: Phakopsora pachyrhizi; test: Phakopsora pachyrhizi / soybean / leaf disc preventative (Asian soybean rust); format: in vivo; conditions: foliar, 200 ppm in the applied formulation, soybean leaf disks, inoculated one day after application, assessed 12 to 14 days after application, read-out: disease control compared to untreated control leaf disks
Summary of the method: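 Read-out is percent disease control relative to untreated check discs, assessed once untreated discs show adequate disease, 12 to 14 days after application. Compounds, tested at 200 ppm in the applied formulation, are sprayed onto soybean leaf discs one day before inoculation with a spore suspension.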

[4] = system: Glomerella lagenarium (Colletotrichum lagenarium); test: Glomerella lagenarium (Colletotrichum lagenarium) liquid culture / cucumber / preventative (anthracnose); format: cell-based; conditions: Colletotrichum orbiculare; 20 ppm in the applied formulation; liquid culture in PDB, 24° C.; 3 to 4 days after application; read-out: disease control compared to untreated control (inhibition of growth measured photometrically)
Summary of the method: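 Cryostored conidia mixed into potato dextrose broth and added to DMSO compound solution in microtiter plates. Incubated at 24 °C. Growth inhibition read photometrically 3–4 days after application as percent activity versus untreated check.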

SMILES | pest or weed control at 200 ppm [1] | pest or weed control at 200 ppm [2] | pest or weed control at 200 ppm [3] | inhibition at 20 ppm [4] | melting point
COc1ccc(Sc2ccc(-c3noc(C(F)(F)F)n3)cc2)cc1 [Compound 1.2, 3-[4-(4-methoxyphenyl)sulfanylphenyl]-5-(trifluoromethyl)-1,2,4-oxadiazole] | ≥ 80% | ≥ 80% | ≥ 80% | ≥ 80% | 55 to 60 °C
Fc1c(CSc2ccccc2)ccc(-c2noc(C(F)(F)F)n2)c1F [Compound 1.26, 3-[2,3-difluoro-4-(phenylsulfanylmethyl)phenyl]-5-(trifluoromethyl)-1,2,4-oxadiazole] | ≥ 80% | ≥ 80% | ≥ 80% | ≥ 80% | 52 to 58 °C
[O-][S+](c1ccccc1)c1ccc(-c2noc(C(F)(F)F)n2)cc1 (centres unmarked) [Compound 2.1, 3-[4-(benzenesulfinyl)phenyl]-5-(trifluoromethyl)-1,2,4-oxadiazole] | ≥ 80% | ≥ 80% | ≥ 80% | ≥ 80% | 97 to 106 °C
COc1ccc([S+]([O-])c2ccc(-c3noc(C(F)(F)F)n3)cc2)cc1 (centres unmarked) [Compound 2.2, 3-[4-(4-methoxyphenyl)sulfinylphenyl]-5-(trifluoromethyl)-1,2,4-oxadiazole] | ≥ 80% | ≥ 80% | ≥ 80% | ≥ 80% | 93 to 98 °C
[O-][S+](c1ccc(-c2noc(C(F)(F)F)n2)cc1)C1CCCCC1 (centres unmarked) [Compound 2.3, 3-(4-cyclohexylsulfinylphenyl)-5-(trifluoromethyl)-1,2,4-oxadiazole] | ≥ 80% | ≥ 80% | ≥ 80% | ≥ 80% | 108 to 114 °C
[O-][S+](c1ccc(-c2noc(C(F)(F)F)n2)cc1)c1ccc(F)cc1F (centres unmarked) [Compound 2.5, 3-[4-(2,4-difluorophenyl)sulfinyl-phenyl]-5-(trifluoromethyl)-1,2,4-oxadiazole] | ≥ 80% | ≥ 80% | ≥ 80% | ≥ 80% | 118 to 123 °C
[O-][S+](CC(F)(F)F)c1ccc(-c2noc(C(F)(F)F)n2)cc1 (centres unmarked) [Compound 2.6, 3-[4-(2,2,2-trifluoroethylsulfinyl)phenyl]-5-(trifluoromethyl)-1,2,4-oxadiazole] | ≥ 80% | ≥ 80% | ≥ 80% | ≥ 80% | 93 to 100 °C
[O-][S+](CCc1ccccc1)c1ccc(-c2noc(C(F)(F)F)n2)cc1 (centres unmarked) [Compound 2.8, 3-[4-(2-phenylethylsulfinyl)phenyl]-5-(trifluoromethyl)-1,2,4-oxadiazole] | ≥ 80% | ≥ 80% | ≥ 80% | ≥ 80% | 81 to 85 °C
[O-][S+](c1ccccc1)c1ccc(-c2noc(C(F)(F)F)n2)cn1 (centres unmarked) [Compound 2.10, 3-[6-(benzenesulfinyl)-3-pyridyl]-5-(trifluoromethyl)-1,2,4-oxadiazole] | ≥ 80% | ≥ 80% | ≥ 80% | ≥ 80% | 91 to 97 °C
Cc1cc(C)cc([S+]([O-])c2ccc(-c3noc(C(F)(F)F)n3)cc2)c1 (centres unmarked) [Compound 2.12, 3-[4-(3,5-dimethylphenyl)sulfinyl-phenyl]-5-(trifluoromethyl)-1,2,4-oxadiazole] | ≥ 80% | ≥ 80% | ≥ 80% | ≥ 80% | 71 to 83 °C
[O-][S+](Cc1ccc(-c2noc(C(F)(F)F)n2)cn1)c1ccccc1 (centres unmarked) [Compound 2.28, 3-[6-(benzenesulfinylmethyl)-3-pyridyl]-5-(trifluoromethyl)-1,2,4-oxadiazole] | ≥ 80% | ≥ 80% | ≥ 80% | ≥ 80% | 116 to 120 °C
O=S(=O)(c1ccccc1)c1ccc(-c2noc(C(F)(F)F)n2)cc1 [Compound 3.1, 3-[4-(benzenesulfonyl)phenyl]-5-(trifluoromethyl)-1,2,4-oxadiazole] | ≥ 80% | ≥ 80% | ≥ 80% | ≥ 80% | 128 to 132 °C
O=S(=O)(c1ccc(-c2noc(C(F)(F)F)n2)cc1)C1CCCC1 [Compound 3.16, 3-(4-cyclopentylsulfonylphenyl)-5-(trifluoromethyl)-1,2,4-oxadiazole] | ≥ 80% | ≥ 80% | ≥ 80% | ≥ 80% | 85 to 92 °C
